# Results taken from patent US20240423972A1, “CHEMOTHERAPEUTIC BIOADHESIVE PARTICLES WITH IMMUNOSTIMULATORY MOLECULES FOR CANCER TREATMENT” (priority 2021, published 2024).
# Columns and labels:
# [1] = tested on: PDVC57 cells; test: Control cytotoxicity assay: solutions not aspirated before addition of cells; type: cell-based, murine
# Procedure: After 48 hours, cell viability was assessed using Cell-Titer Glo. (8D) PDVC7 cells were harvested and seeded on a 96-well plate (5000 cells/well). […] FIG. 8B is a control for assay (8A) in which there is no poly-l-lysine attached to the plate.
# A simulated, protein-rich tumor matrix was created by coating a 96 wellplate with 0.01% poly-l-lysine in 1×PBS. […] […] After 48 hours, cell viability was assessed using Cell-Titer Glo. PDVC7 cells were harvested and seeded on a 96-well plate (5000 cells/well). […] After 48 hours, cell viability was assessed using Cell-Titer Glo. A control for assay in which the poly-l-lysine coated plates are incubated with blank (unloaded) NP, free CPT, NNP-CPT or BNP-CPT, but these solutions are not aspirated before the addition of PDVC57 cells.
# [2] = tested on: PDVC57 tumors; test: Intratumoral CPT retention (CPT recovered from tumors); type: in vivo, C57BL/6J mice; details: 240 h (10 days) after intratumoral injection, 0.25 mg CPT
# Procedure: (§1) All animal procedures were conducted in accordance with Yale Institutional Animal Care and Use Committee guidelines. Mice were housed in the Yale Animal Resource Center and afforded free access to food and water. Wild-type C57BL/6J mice were obtained from The Jackson Laboratory. To prepare the animals for tumor transplantation, the dorsal right flank was shaved using electric clippers. PDVC57 cells were harvested, washed, and resuspended in 1×PBS on ice at a concentration of 5.0×10^7 cells per mL. Mice were then anesthetized in an induction chamber with […] in propylene glycol and the dorsal right flank injected intradermally/subcutaneously with 5.0×10^6 cells in 100 μl using a 27-gauge syringe, forming a small bleb at the site of injection.
# When tumors reached a diameter of about 5 mm, they were treated with either free CPT (0.25 mg of CPT/50 μL of intralipid), NNP-CPT (0.25 mg of CPT/50 μL of PBS), or BNP-CPT (0.25 mg of CPT/50 μL of PBS). Following injection, tumors were harvested and lyophilized at 0, 48, and 240 h. […] The homogenate was centrifuged at 10,000×g for 5 min to pellet residual tumor and debris, the supernatant removed, and CPT quantified using its intrinsic fluorescence as described above.
# [3] = tested on: PDVC57 tumors; test: In vivo assessment of CPT NP efficacy; details: single dose of 0.25 mg of CPT by intratumoral injection
# Procedure: as §1
# PDVC57 tumors were induced as described above. When tumors attained a diameter of approximately 5 mm, they were injected with either blank BNPs (1.99 mg/50 μL of PBS), IL-CPT (0.25 mg of CPT/50 μL), NNP-CPT (0.25 mg of CPT/50 μL of PBS), or BNP-CPT (0.25 mg of CPT/50 μL of PBS) using a 27-gauge needle, which was positioned in the center of the tumor. The entire treatment volume was administered intratumorally over 15 s. The needle was then held in this position for 10 s and withdrawn slowly in order to prevent leakage of drug from the injection site.
smiles,measurement,setting,value
"CC[C@@]1(O)C(=O)OCc2c1cc1n(c2=O)Cc2cc3ccccc3nc2-1 [free CPT, Camptothecin]",Killing of PDVC57 (viability),[1],comparable killing
same,percentage of the injected CPT recovered from tumors,[2],undetectable
same,Systemic toxicity in pilot studies,[3],without clinical evidence of systemic toxicity
